# Experimental data: patent publication US20090233881A1, “COMPOUNDS HAVING ANTI-CANCER PROPERTIES” (Vital Health Sciences Pty. Ltd, priority 2005, published 2009)
# Where “and” joins values, the source holds several entries; their conditions need not be identical. Identical values can stand only once.
# What was measured:
# [1] = tested on: MCF-7 breast cancer cells; assay: MCF-7 breast cancer cell line proliferation assay (MTS); type: cell-based, human; conditions: for activity on MCF-7 proliferation (MTS; quantity not given): MCF-7, 72 hours, no E
# Experimental: MCF-7 breast cancer cell growth conditions: Cells were grown in 75 cm^2 plastic tissue cell flasks as monolayer in Dulbecco's Modified Eagle Medium (DMEM), supplemented with 10% FBS in a humidified atmosphere of 5% CO2 in 95% air at 37° C. Cells were sub-cultured at bi-weekly intervals by suspension with 0.06% trypsin/0.02% EDTA (pH 7.3).
# MCF-7 breast cancer cell line proliferation assays (MITS Assays): Cells were trypsinised (as performed during sub-culturing) in DMEM, supplemented with 10% FBS. Cells were re-suspended to a cell count of 10,000 cells/ml, with the use of a haemocytometer. Cells were seeded at 1,000 cells/well or by the addition of 100 μl of the cell suspension into 96-well cell culture plates. The cells were left overnight and then were synchronised (by serum starving for 24 hours), prior to the start of experiments.
# After the cells were synchronised the cells were treated with the appropriate concentrations of the treatments, prepared in 100% ethanol (2, 5, 10, 15, 20, 30 & 50 μg/ml), they were added to RPMI medium 1640 supplemented with 10% dextran-charcoal treated FCS (DCFBS). […] After 72 hours the plates are incubated with MTS reagent (as described in Example 1) for 1 hr. The plate was read in a spectrophotometer at 490 nm. There were 8 replicates for each compound tested (at the various concentrations shown below).
# Treatment abbreviations: GT=gamma-tocopherol; GTP=gamma-tocopheryl phosphate; GT2P=gamma-di-tocopheryl phosphate, GTPM=gamma-tocopheryl phosphate mixture (combination of GTP and GT2P).
# [2] = tested on: MCF-7 breast cancer cells; assay: as above; type: cell-based, human; conditions: MCF-7, 72 hours, no E, concentration 1
# [3] = tested on: DU-145 prostate cancer cells; assay: DU-145 cell growth assay (Coulter cell counting); type: cell-based; conditions: DU-145, 12 days; for Total viable cells/well: single well
# Experimental: Culture of stock cells. DU-145 prostate cancer cells were purchased from American Type Culture Collection (Manassas, Va., USA). Stock cells were grown in Dulbecco's Modified Eagle Medium (DMEM) (Gibco BRL, Grand Island N.Y.) supplemented with 5% FBS (Fetal Bovine Serum, Gibco BRL, Grand Island N.Y.) in a humidified atmosphere of 5% CO2 in air at 37° C. Cells were subcultured every 1-2 times a week.
# Cell growth assay. Cells were trypsinized from the stock plates by treatment with trypsin/versene, added to an equal volume of phenol red-free RPMI-1640 (Gibco BRL, Grand Island N.Y.) supplemented with 5% dextran-charcoal treated fetal calf serum (DCFCS). Cells were resuspended to a cell count of 0.1×10^5 cells/ml with the use of a haemocytometer and plated in monolayer in 0.5 ml aliquots into 24-well plastic culture dishes (Costar, Corning USA). After 24 hours, cells were treated with appropriate concentrations (see table) of γ-tocopheryl phosphate mixture (γ-TP) (Vital Health) and Lycopene (Sigma) or combinations of Lycopene and γ-TP diluted in phenol red-free RPMI medium 1640 supplemented with 5% DCFCS. The culture medium was changed every 3-4 days. The combination treatment contained lycopene and γ-TP in a 1:1 ratio by molecular weight/mass with lycopene varying from 5 ug/ml-40 ug/ml.
# Cell counting. The cells were washed twice with 0.9% NaCl to remove non-adherent dead cells and were then lysed in 0.5 ml 2.5 mM Hepes buffer/[…] MgCl2 plus two drops of zapoglobin II lytic reagent (Beckman Coulter, Coulter Corp USA) for 5-15 minutes. The nuclei released were suspended in isoton III (Beckman Coulter, Coulter Corp, USA) and counted on a Coulter counter with particle size set at >5 μm. All cell counts were carried out in triplicate on triplicate well contents. The results were calculated as the average ±standard error. P-values were determined using Independent samples T-Test (by standard software packages SPSS).
Compound,activity on MCF-7 proliferation (MTS; quantity not given) ([1]; concentration 2 μg/ml),activity on MCF-7 proliferation (MTS; quantity not given) ([1]; concentration 5 μg/ml),activity on MCF-7 proliferation (MTS; quantity not given) ([1]; concentration 10 μg/ml),activity on MCF-7 proliferation (MTS; quantity not given) ([1]; concentration 15 μg/ml),activity on MCF-7 proliferation (MTS; quantity not given) ([1]; concentration 20 μg/ml),activity on MCF-7 proliferation (MTS; quantity not given) ([1]; concentration 30 μg/ml),activity on MCF-7 proliferation (MTS; quantity not given) ([1]; concentration 50 μg/ml),activity on MCF-7 proliferation (MTS; quantity not given) [2],relative potency as anti-cancer treatment ([1]; MCF-7),Average total viable cells/well ([3]; Lycopene 5 ug/ml),Total viable cells/well ([3]; Lycopene 5 ug/ml),Average total viable cells/well ([3]; Lycopene 10 ug/ml),Total viable cells/well ([3]; Lycopene 10 ug/ml),Average total viable cells/well ([3]; Lycopene 15 ug/ml),Total viable cells/well ([3]; Lycopene 15 ug/ml),Average total viable cells/well ([3]; Lycopene 20 ug/ml),Average total viable cells/well ([3]; Lycopene 25 ug/ml),Total viable cells/well ([3]; Lycopene 25 ug/ml),Average total viable cells/well ([3]; Lycopene 30 ug/ml)
"Cc1c(OP(=O)(O)Oc2cc3c(c(C)c2C)O[C@](C)(CCC[C@H](C)CCC[C@H](C)CCCC(C)C)CC3)cc2c(c1C)O[C@](C)(CCC[C@H](C)CCC[C@H](C)CCCC(C)C)CC2 [GT2P, gamma-di-tocopheryl phosphate]",4.91,31.07,39.471,53.126,64.557,98.43,126.506,7.283,,,,,,,,,,,
"Cc1c(O)cc2c(c1C)O[C@](C)(CCC[C@H](C)CCC[C@H](C)CCCC(C)C)CC2 [GT, gamma-tocopherol]",15.685,36.36,68.689,56.82,79.766,82.743,62.622,−6.104,least potent with limited activity,,,,,,,,,,
"Cc1c(OP(=O)(O)O)cc2c(c1C)O[C@](C)(CCC[C@H](C)CCC[C@H](C)CCCC(C)C)CC2 [GTP, gamma-tocopheryl phosphate]",5.624,4.807,25.102,43.512,64.719,81.81,109.928,7.32,,,,,,,,,,,
CC(C)=CCC/C(C)=C/C=C/C(C)=C/C=C/C(C)=C/C=C/C=C(C)/C=C/C=C(C)/C=C/C=C(\C)CCC=C(C)C [lycopene],,,,,,,,,,4.367 ×10^5 cells/well,4.392 ×10^5 cells/well and 4.383 ×10^5 cells/well and 4.325 ×10^5 cells/well,3.712 ×10^5 cells/well,3.555 ×10^5 cells/well and 3.869 ×10^5 cells/well,3.716 ×10^5 cells/well,3.704 ×10^5 cells/well and 3.727 ×10^5 cells/well,0.276 ×10^5 cells/well,1.478 ×10^5 cells/well,1.759 ×10^5 cells/well and 1.196 ×10^5 cells/well,0.120 ×10^5 cells/well
